The NIST ThermoML archive (doi:10.1016/j.jct.2016.12.029)

Conditions: Gas, Buoyancy - hydrostatic balance with magnetic suspension - one sinker

C=C(F)C(F)(F)F [2,3,3,3-tetrafluoro-1-propene]
Conditions | mass density [kg/m3]
265.46 K, 101.2 kPa | 5.404
265.48 K, 207.2 kPa | 11.507
270.36 K, 101 kPa | 5.279
270.38 K, 164.6 kPa | 8.792
270.38 K, 250.3 kPa | 13.798
275.39 K, 106.2 kPa | 5.448
275.4 K, 208.6 kPa | 11.064
275.42 K, 303.7 kPa | 16.657
280.28 K, 103.6 kPa | 5.208
280.29 K, 176.6 kPa | 9.076
280.29 K, 274 kPa | 14.527
280.29 K, 356.2 kPa | 19.43
285.27 K, 258.8 kPa | 13.34
285.28 K, 104.7 kPa | 5.162
285.28 K, 164.2 kPa | 8.23
285.28 K, 358.5 kPa | 19.078
290.38 K, 102.2 kPa | 4.937
290.39 K, 184.5 kPa | 9.113
290.4 K, 308.8 kPa | 15.792
290.4 K, 421.2 kPa | 22.298
295.4 K, 101.7 kPa | 4.829
295.4 K, 196.9 kPa | 9.565
295.4 K, 400.6 kPa | 20.565
295.4 K, 600.7 kPa | 32.885
295.41 K, 305.3 kPa | 15.255
295.41 K, 510.2 kPa | 27.092
300.2 K, 668.8 kPa | 36.434
300.21 K, 108 kPa | 5.039
300.21 K, 218.9 kPa | 10.489
300.21 K, 324 kPa | 15.933
300.21 K, 439.4 kPa | 22.291
300.21 K, 545.8 kPa | 28.564
